From article PMC4819940 (Cancer Chemotherapy and Pharmacology, 2016)

Test system: advanced solid tumors in Japanese patients
Assay: Objective tumor response (RECIST version 1.1)
Type: in vivo, human
Details: for Best objective response: Non-response, Not evaluable / Best objective response: Non-response, RECIST progression / Best objective response: Non-response, Stable disease ≥6 weeks / Best objective response: Complete response / Best objective response: Partial response: patients, count (%); for Best objective response: Complete response / Best objective response: Partial response: response confirmed after 4 weeks; for time to partial response after starting AZD5363: Akt1 (E17K) positive; for duration of partial response at data cutoff: data cutoff July 7, 2014
Source text: Objective tumor response assessments were based on Response Evaluation Criteria in Solid Tumors (RECIST) version 1.1.
Tumor samples were screened for mutations using a clinical sequencing platform consisting of an in-house cancer gene panel (National Cancer Center OncoPanel version 2) based on an Agilent Sure Select system and an Illumina MiSeq sequencer. The target regions to be captured were the exons of 90 targetable or actionable genes and the introns of 10 protein kinase genes. Samples with <10 % tumor cell content were excluded from the analysis.

[1] = breast cancer patient, 640 mg bid intermittent 2/5
[2] = ovarian cancer patient, 480 mg bid intermittent 4/3

In the case of `NC1(C(=O)N[C@@H](CCO)c2ccc(Cl)cc2)CCN(c2ncnc3[nH]ccc23)CC1` [AZD5363], the “Best objective response: Non-response, Not evaluable” value (80 mg bid continuous) is reported as 0 (0.0), the “Best objective response: Non-response, RECIST progression” value (80 mg bid continuous) is reported as 1 (33.3) and the “Best objective response: Non-response, Stable disease ≥6 weeks” value (80 mg bid continuous) is reported as 2 (66.7). For the same molecule, the “Best objective response: Complete response” value (80 mg bid continuous) was 0 (0.0), the “Best objective response: Partial response” value (80 mg bid continuous) was 0 (0.0) and the “Best objective response: Non-response, Not evaluable” value (240 mg bid continuous) was 1 (14.3). The “Best objective response: Non-response, RECIST progression” value (240 mg bid continuous) was 5 (71.4), the “Best objective response: Non-response, Stable disease ≥6 weeks” value (240 mg bid continuous) was 1 (14.3) and the “Best objective response: Complete response” value (240 mg bid continuous) was 0 (0.0). The “Best objective response: Partial response” value (240 mg bid continuous) was 0 (0.0), the “Best objective response: Non-response, Not evaluable” value (320 mg bid continuous) was 2 (66.7) and the “Best objective response: Non-response, RECIST progression” value (320 mg bid continuous) was 1 (33.3). For the same molecule, the “Best objective response: Non-response, Stable disease ≥6 weeks” value (320 mg bid continuous) was 0 (0.0), the “Best objective response: Complete response” value (320 mg bid continuous) was 0 (0.0) and the “Best objective response: Partial response” value (320 mg bid continuous) was 0 (0.0). For the same molecule, the “Best objective response: Non-response, Not evaluable” value (360 mg bid intermittent 4/3) was 2 (25.0), the “Best objective response: Non-response, RECIST progression” value (360 mg bid intermittent 4/3) was 3 (37.5) and the “Best objective response: Non-response, Stable disease ≥6 weeks” value (360 mg bid intermittent 4/3) was 3 (37.5). The “Best objective response: Complete response” value (360 mg bid intermittent 4/3) was 0 (0.0), the “Best objective response: Partial response” value (360 mg bid intermittent 4/3) was 0 (0.0) and the “Best objective response: Non-response, Not evaluable” value (400 mg bid continuous) was 1 (25.0). The “Best objective response: Non-response, RECIST progression” value (400 mg bid continuous) was 3 (75.0), the “Best objective response: Non-response, Stable disease ≥6 weeks” value (400 mg bid continuous) was 0 (0.0) and the “Best objective response: Complete response” value (400 mg bid continuous) was 0 (0.0). For the same molecule, the “Best objective response: Partial response” value (400 mg bid continuous) was 0 (0.0), the “Best objective response: Non-response, Not evaluable” value (480 mg bid intermittent 4/3) was 0 (0.0) and the “Best objective response: Non-response, RECIST progression” value (480 mg bid intermittent 4/3) was 1 (16.7). For the same molecule, the “Best objective response: Non-response, Stable disease ≥6 weeks” value (480 mg bid intermittent 4/3) was 4 (66.7), the “Best objective response: Complete response” value (480 mg bid intermittent 4/3) was 0 (0.0) and the “Best objective response: Partial response” value (480 mg bid intermittent 4/3) was 1 (16.7). For the same molecule, the “Best objective response: Non-response, Not evaluable” value (640 mg bid intermittent 2/5) was 1 (16.7), the “Best objective response: Non-response, RECIST progression” value (640 mg bid intermittent 2/5) was 4 (66.7) and the “Best objective response: Non-response, Stable disease ≥6 weeks” value (640 mg bid intermittent 2/5) was 0 (0.0). The “Best objective response: Complete response” value (640 mg bid intermittent 2/5) was 0 (0.0), the “Best objective response: Partial response” value (640 mg bid intermittent 2/5) was 1 (16.7) and the “Best objective response: Non-response, Not evaluable” value (Total) was 7 (18.9). For the same molecule, the “Best objective response: Non-response, RECIST progression” value (Total) was 18 (48.6), the “Best objective response: Non-response, Stable disease ≥6 weeks” value (Total) was 10 (27.0) and the “Best objective response: Complete response” value (Total) was 0 (0.0). The “Best objective response: Partial response” value (Total) was 2 (5.4), the “patients with confirmed partial response” value (all cohorts, both Akt1 (E17K) mutation positive) was “two” and the “best response, decrease in the SLD of target lesions” value [1] was 60.8%. The “day on which progression was confirmed” value [1] was 378 days, the “time to partial response after starting AZD5363” value [1] was 44 days and the “patients with stable disease for 12 weeks or more” value (of the 10 patients with stable disease) was “Seven”. For the same molecule, the “time partial response was maintained” value (one patient in the 480 mg bid 4/3 dosing cohort) was greater than 2 years, the “best response, decrease in the sum of the longest diameter (SLD) of target lesions” value [2] was 55.8% and the duration of response (ovarian cancer patient, 480 mg bid intermittent 4/3, as of September 2015, according to the investigator) was 1177 days. For the same molecule, the “time to partial response after starting AZD5363” value [2] was 79 days, the “duration of partial response at data cutoff” value (patient in the 480 mg bid intermittent 4/3 cohort) was 675 days and the “duration of partial response at data cutoff” value (patient in the 640 mg bid intermittent 2/5 cohort) was 127 days. For the same molecule, the “patients with stable disease” value (three on continuous dosing and seven on intermittent dosing) was “Ten”, the “patients with a complete response” value (tumor response analysis set) was “no patients” and the “patients with disease progression” value (tumor response analysis set, 37 patients) was 48.6%. For the same molecule, the “response of PIK3CA mutation positive patients to AZD5363 treatment” value (two additional patients identified as PIK3CA mutation positive) was “did not respond”.
